These compounds were tested against T1, rhuman cathepsin K (Homo sapiens, UniProt P43235) (assay: Assay for identification of Cathepsin K inhibitors (QFRET, cleavage of Z-Phe-Arg-AMC)). Conditions: 0.5 nM rhuman cathepsin K, Z-Phe-Arg-AMC substrate, 30 min pre-incubation, 1 h incubation at room temperature; mean of two separate occasions; read-out: CatK FRET Mean pIC50 (converted).
T1 sequence (P43235 115-329): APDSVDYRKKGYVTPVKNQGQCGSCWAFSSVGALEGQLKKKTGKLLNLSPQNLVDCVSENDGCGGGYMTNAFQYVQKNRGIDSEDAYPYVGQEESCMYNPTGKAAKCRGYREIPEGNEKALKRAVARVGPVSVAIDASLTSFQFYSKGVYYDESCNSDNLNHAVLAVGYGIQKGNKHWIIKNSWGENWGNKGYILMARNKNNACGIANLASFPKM
Type: biochemical
Description: 0.5 nM [final] rhuman cathepsin K in phosphate buffer was added to a 384-well black microtitre plate containing investigative compounds. The enzyme and compound were pre-incubated at room temperature for 30 minutes before the addition of […] [final] Z-Phe-Arg-AMC synthetic substrate in phosphate buffer. The plates were covered and incubated for 1 h at room temperature, protected from light. Following the incubation the reaction was stopped with 7.5% [final]acetic acid. Relative fluorescence was measured using the Ultra plate reader at a wavelength of 360 nm excitation and 425 nm emission.
Data was corrected for background fluorescence (minimum controls without enzyme).

Structure (SMILES) | IC50
N#CC1(NC(=O)[C@@H]2CCCC[C@H]2C(=O)N2CCc3[nH]c4ccc(F)cc4c3C2)CC1 [Example 1, (1R,2R)-N-(1-cyanocyclopropyl)-2-[(8-fluoro-1,3,4,5-tetrahydro-2H-pyrido[4,3-b]indol-2-yl)carbonyl]cyclohexanecarboxamide] | 0.849 nM
N#CC1(NC(=O)[C@@H]2CCCC[C@H]2C(=O)N2CCc3[nH]c4ccc(Cl)cc4c3C2)CC1 [Example 2, (1R,2R)-2-[(8-chloro-1,3,4,5-tetrahydro-2H-pyrido[4,3-b]indol-2-yl)carbonyl]-N-(1-cyanocyclopropyl)cyclohexanecarboxamide] | 2.99 nM
N#CC1(NC(=O)[C@@H]2CCCC[C@H]2C(=O)N2CCc3[nH]c4ccc(Br)cc4c3C2)CC1 [Example 5, (1R,2R)-2-[(8-bromo-1,3,4,5-tetrahydro-2H-pyrido[4,3-b]indol-2-yl)carbonyl]-N-(1-cyanocyclopropyl)cyclohexanecarboxamide] | 6.38 nM
N#CC1(NC(=O)[C@@H]2CCCC[C@H]2C(=O)N2CCc3[nH]c4ccc(C(F)(F)F)cc4c3C2)CC1 [Example 7, (1R,2R)-N-(1-cyanocyclopropyl)-2-{[8-(trifluoromethyl)-1,3,4,5-tetrahydro-2H-pyrido[4,3-b]indol-2-yl]carbonyl}cyclohexanecarboxamide] | 42.1 nM
N#CC1(NC(=O)[C@@H]2CCCC[C@H]2C(=O)N2CCc3[nH]c4cccc(F)c4c3C2)CC1 [Example 9, (1R,2R)-N-(1-cyanocyclopropyl)-2-[(9-fluoro-1,3,4,5-tetrahydro-2H-pyrido[4,3-b]indol-2-yl)carbonyl]cyclohexanecarboxamide] | 49.9 nM
N#CC1(NC(=O)[C@@H]2CCCC[C@H]2C(=O)N2CCc3[nH]c4cc(F)ccc4c3C2)CC1 [Example 10, (1R,2R)-N-(1-cyanocyclopropyl)-2-[(7-fluoro-1,3,4,5-tetrahydro-2H-pyrido[4,3-b]indol-2-yl)carbonyl]cyclohexanecarboxamide] | 10.2 nM
CC(C)c1ccc2[nH]c3c(c2c1)CN(C(=O)[C@@H]1CCCC[C@H]1C(=O)NC1(C#N)CC1)CC3 [Example 11, (1R,2R)-N-(1-cyanocyclopropyl)-2-[(8-isopropyl-1,3,4,5-tetrahydro-2H-pyrido[4,3-b]indol-2-yl)carbonyl]cyclohexanecarboxamide] | 3.67 nM
N#CC1(NC(=O)[C@@H]2CCCC[C@H]2C(=O)N2CCc3[nH]c4ncccc4c3C2)CC1 [Example 14] | 1.07 nM
CN(C)Cc1ccc2[nH]c3c(c2c1)CN(C(=O)[C@@H]1CCCC[C@H]1C(=O)NC1(C#N)CC1)CC3 [Example 15, (1R,2R)-N-(1-cyanocyclopropyl)-2-({8-[(dimethylamino)methyl]-1,3,4,5-tetrahydro-2H-pyrido[4,3-b]indol-2-yl}carbonyl)cyclohexanecarboxamide] | 8.91 nM
CS(=O)(=O)c1ccc2[nH]c3c(c2c1)CN(C(=O)[C@@H]1CCCC[C@H]1C(=O)NC1(C#N)CC1)CC3 [Example 16, (1R,2R)-N-(1-cyanocyclopropyl)-2-{[8-(methylsulfonyl)-1,3,4,5-tetrahydro-2H-pyrido[4,3-b]indol-2-yl]carbonyl}cyclohexanecarboxamide] | 78.5 nM
N#CC1(NC(=O)[C@@H]2CCCC[C@H]2C(=O)N2Cc3ccccc3C3(CCNCC3)C2)CC1 [Example 18, (1R,2R)-N-(1-cyanocyclopropyl)-2-(1H-spiro[isoquinoline-4,4′-piperidin]-2(3H)-ylcarbonyl)cyclohexanecarboxamide] | 7.1 nM
N#CC1(NC(=O)[C@@H]2CCCC[C@H]2C(=O)N2CCc3[nH]c4c(OC(F)(F)F)cccc4c3C2)CC1 [Example 24, (1R,2R)-N-(1-cyanocyclopropyl)-2-{[6-(trifluoromethoxy)-1,3,4,5-tetrahydro-2H-pyrido[4,3-b]indol-2-yl]carbonyl}cyclohexanecarboxamide] | 1.88 nM
N#CC1(NC(=O)[C@@H]2CCCC[C@H]2C(=O)N2CCc3[nH]c4c(C(F)(F)F)cccc4c3C2)CC1 [Example 30, (1R,2R)-N-(1-cyanocyclopropyl)-2-{[6-(trifluoromethyl)-1,3,4,5-tetrahydro-2H-pyrido[4,3-b]indol-2-yl]carbonyl}cyclohexanecarboxamide] | 5.5 nM
CS(=O)(=O)c1cccc2c3c([nH]c12)CCN(C(=O)[C@@H]1CCCC[C@H]1C(=O)NC1(C#N)CC1)C3 [Example 31, (1R,2R)-N-(1-cyanocyclopropyl)-2-{[6-(methylsulfonyl)-1,3,4,5-tetrahydro-2H-pyrido[4,3-b]indol-2-yl]carbonyl}cyclohexanecarboxamide] | 17.4 nM

Second part, the compound after the results:

IC50 | Structure (SMILES)
0.767 nM | N#CC1(NC(=O)[C@@H]2CCCC[C@H]2C(=O)N2CCc3[nH]c4c(F)cccc4c3C2)CC1 [Example 3, (1R,2R)-N-(1-cyanocyclopropyl)-2-[(6-fluoro-1,3,4,5-tetrahydro-2H-pyrido[4,3-b]indol-2-yl)carbonyl]cyclohexanecarboxamide]
1.3 nM | N#CC1(NC(=O)[C@@H]2CCCC[C@H]2C(=O)N2CCc3[nH]c4ccccc4c3C2)CC1 [Example 4, (1R,2R)-N-(1-cyanocyclopropyl)-2-(1,3,4,5-tetrahydro-2H-pyrido[4,3-b]indol-2-ylcarbonyl)cyclohexanecarboxamide]
40.7 nM | COc1ccc2[nH]c3c(c2c1)CN(C(=O)[C@@H]1CCCC[C@H]1C(=O)NC1(C#N)CC1)CC3 [Example 8, (1R,2R)-N-(1-cyanocyclopropyl)-2-[(8-methoxy-1,3,4,5-tetrahydro-2H-pyrido[4,3-b]indol-2-yl)carbonyl]cyclohexanecarboxamide]
2.84 nM | Cn1c2c(c3cc(F)ccc31)CN(C(=O)[C@@H]1CCCC[C@H]1C(=O)NC1(C#N)CC1)CC2 [Example 12, (1R,2R)-N-(1-cyanocyclopropyl)-2-[(8-fluoro-5-methyl-1,3,4,5-tetrahydro-2H-pyrido[4,3-b]indol-2-yl)carbonyl]cyclohexanecarboxamide]
2.24 nM | N#CC1(NC(=O)[C@@H]2CCCC[C@H]2C(=O)N2CCc3[nH]c4c(Br)cccc4c3C2)CC1 [Example 13, (1R,2R)-2-[(6-bromo-1,3,4,5-tetrahydro-2H-pyrido[4,3-b]indol-2-yl)carbonyl]-N-(1-cyanocyclopropyl)cyclohexanecarboxamide]
0.658 nM | COc1cccc2c3c([nH]c12)CCN(C(=O)[C@@H]1CCCC[C@H]1C(=O)NC1(C#N)CC1)C3 [Example 17, (1R,2R)-N-(1-cyanocyclopropyl)-2-[(6-methoxy-1,3,4,5-tetrahydro-2H-pyrido[4,3-b]indol-2-yl)carbonyl]cyclohexanecarboxamide]
1.78 nM | N#CC1(NC(=O)[C@@H]2CCCC[C@H]2C(=O)N2CCc3[nH]c4c(Cl)cccc4c3C2)CC1 [Example 19, (1R,2R)-2-[(6-chloro-1,3,4,5-tetrahydro-2H-pyrido[4,3-b]indol-2-yl)carbonyl]-N-(1-cyanocyclopropyl)cyclohexanecarboxamide]
1.91 nM | N#Cc1cccc2c3c([nH]c12)CCN(C(=O)[C@@H]1CCCC[C@H]1C(=O)NC1(C#N)CC1)C3 [Example 20, (1R,2R)-N-(1-cyanocyclopropyl)-2-[(6-cyano-1,3,4,5-tetrahydro-2H-pyrido[4,3-b]indol-2-yl)carbonyl]cyclohexanecarboxamide]
1.46 nM | Cn1c2c(c3cccnc31)CN(C(=O)[C@@H]1CCCC[C@H]1C(=O)NC1(C#N)CC1)CC2 [Example 21, (1R,2R)-N-(1-cyanocyclopropyl)-2-[(9-methyl-5,7,8,9-tetrahydro-6H-pyrrolo[2,3-b:4,5-c′]dipyridin-6-yl)carbonyl]cyclohexanecarboxamide]
4.32 nM | CSc1cccc2c3c([nH]c12)CCN(C(=O)[C@@H]1CCCC[C@H]1C(=O)NC1(C#N)CC1)C3 [Example 22, (1R,2R)-N-(1-cyanocyclopropyl)-2-{[6-(methylthio)-1,3,4,5-tetrahydro-2H-pyrido[4,3-b]indol-2-yl]carbonyl}cyclohexanecarboxamide]
2.24 nM | N#CC1(NC(=O)[C@@H]2CCCC[C@H]2C(=O)N2CCc3oc4ccccc4c3C2)CC1 [Example 23, (1R,2R)-N-(1-cyanocyclopropyl)-2-[(benzofuro[3,2-c]-1,2,3,4-tetrahydropyridyl)carbonyl]cyclohexanecarboxamide]
0.899 nM | CCOc1cccc2c3c([nH]c12)CCN(C(=O)[C@@H]1CCCC[C@H]1C(=O)NC1(C#N)CC1)C3 [Example 25, (1R,2R)-N-(1-cyanocyclopropyl)-2-[(6-ethoxy-1,3,4,5-tetrahydro-2H-pyrido[4,3-b]indol-2-yl)carbonyl]cyclohexanecarboxamide]
2.85 nM | COC(=O)Cn1c2c(c3ccccc31)CN(C(=O)[C@@H]1CCCC[C@H]1C(=O)NC1(C#N)CC1)CC2 [Example 26, (1R,2R)-N-(1-cyanocyclopropyl)-2-[(5-methoxycarbonylmethyl-1,3,4,5-tetrahydro-2H-pyrido[4,3-b]indol-2-yl)carbonyl]cyclohexanecarboxamide]
3.45 nM | N#CC1(NC(=O)[C@@H]2CCCC[C@H]2C(=O)N2CCc3c(c4ccccc4n3CC3CC3)C2)CC1 [Example 28, (1R,2R)-N-(1-cyanocyclopropyl)-2-[(5-cyclopropylmethyl-1,3,4,5-tetrahydro-2H-pyrido[4,3-b]indol-2-yl)carbonyl]cyclohexanecarboxamide]
3.89 nM | COCCn1c2c(c3ccccc31)CN(C(=O)[C@@H]1CCCC[C@H]1C(=O)NC1(C#N)CC1)CC2 [Example 29, (1R,2R)-N-(1-cyanocyclopropyl)-2-[(5-methoxyethyl-1,3,4,5-tetrahydro-2H-pyrido[4,3-b]indol-2-yl)carbonyl]cyclohexanecarboxamide]

Reference: US8008279B2, “Compound—827” (AstraZeneca AB, priority 2007, dated 2011)
